Assay results from patent US20200405752A1, “ANTITUMOR AGENT, ANTITUMOR EFFECT ENHANCER, AND ANTITUMOR KIT” (FUJIFILM Corporation, priority 2018, published 2020).
pIC50: −log10 of the molar value. Where two headings read alike, the source gives them in different places.

What was measured:
[1] = system: human ovarian cancer cell line SK-OV-3; assay: Cell viability (CellTiter Glo) of SK-OV-3 in combination with cisplatin or carboplatin; assay type: cell-based; conditions: for viability at 0.001 µM / viability at 0.003 µM / viability at 0.01 µM / viability at 0.03 µM / viability at 0.1 µM / viability at 0.3 µM / viability at 1 µM / viability at 3 µM / viability at 10 µM / pIC50: Homo sapiens; for viability at 0.001 µM / viability at 0.003 µM / viability at 0.01 µM / viability at 0.03 µM / viability at 0.1 µM / viability at 0.3 µM / viability at 1 µM / viability at 3 µM / viability at 10 µM: SK-OV-3, 72 h, 3 days; for viability at 0.001 µM: test substance 1 nM; for viability at 0.003 µM: test substance 3 nM; for viability at 0.01 µM: test substance 10 nM; for viability at 0.03 µM: test substance 30 nM; for viability at 0.1 µM: test substance 100 nM; for viability at 0.3 µM: test substance 300 nM; for viability at 1 µM: test substance 1000 nM; for viability at 3 µM: test substance 3000 nM; for viability at 10 µM: test substance 10000 nM; for pIC50: SK-OV-3, SK-OV-3; for CI: SK-OV-3 Cell
From the text: On the combinational effect of the embodiment of the invention, the results of evaluation using a combination index (CI) which is a quantitative index of the combinational effect are shown. The CI can be calculated by the following equation according to Cancer Research, 2010, Vol. 70, pp. 440 to 446.
That is, in a case where the drugs to be used in combination are drug 1 and drug 2, the CI at a certain drug concentration is
CI={(cell viability in case of using drug 1 and drug 2 in combination)/100}/{[(cell viability in case of using drug 1)/100]×[(cell viability in case of using drug 2)/100]}
Evaluation of antitumor activity against human ovarian cancer cell lines ES-2 and SK-OV-3 in combination with cisplatin and carboplatin
Furthermore, the antitumor activity against human ovarian cancer-derived cell lines ES-2 and SK-OV-3 in combination with cisplatin and carboplatin was evaluated in the same manner as in Test Example 1.
Gemcitabine, cisplatin, carboplatin, and methanesulfonate of Compound A were used as test substances.
Gemcitabine hydrochloride (manufactured by Plantex Co., Ltd.) dissolved in DMSO was used as gemcitabine. Cisplatin (Cat. #039-20091, manufactured by Wako Pure Chemical Industries, Ltd.) and carboplatin (Cat. #C2043, manufactured by Tokyo Chemical Industry Co., Ltd.), each of which dissolved in McCoy's 5a medium (Cat. #16600-082, manufactured by Thermo Fisher Scientific Inc.) supplemented with 1% serum (Cat. #10437-028, manufactured by Thermo Fisher Scientific Inc.), were used as cisplatin and carboplatin, respectively.
Human ovarian cancer cell line ES-2 and SK-OV-3 cells were subcultured in 10% serum-supplemented medium. During this test, all cell cultures were carried out in a CO2 incubator (set to 37° C. and 5% CO2, saturated with water vapor). ES-2 cells were diluted with 10% serum-supplemented medium to a cell density of 10000 cells/well/100 μL and SK-OV-3 cells were diluted with 10% serum-supplemented medium to a cell density of 15000 cells/well/100 μL, and then seeded on a 96-well plate. On the next day, the culture supernatant of each well was discarded, followed by washing twice with 150 μL of 1% serum-supplemented medium, and 100 μL of 1% serum-supplemented medium was added thereto, followed by culturing for 3 days.
The methanesulfonate of Compound A and gemcitabine were dissolved in DMSO to prepare 100 mmol/L DMSO solutions thereof. The thus-prepared DMSO solutions were diluted sequentially with DMSO to prepare DMSO solutions having a final treatment concentration of 1000-fold dilution. […] […] Compound A and gemcitabine were used with a maximum concentration of 10 μmol/L at a common ratio of 1/3 and 9 concentrations in combination with cisplatin or Carboplatin.
20 μL of Compound A or gemcitabine diluted with the cisplatin solution (60 μmol/L) or the Carboplatin solution (600 μmol/L) was added to each well. In addition, a group in which only a solvent containing no drug was added to wells in which cells were seeded (positive control), and a group in which only a solvent containing no drug was added to wells containing only a medium (negative control) were provided. All groups were set to n=3 well.
The cells were cultured for 3 days after the addition of the drug, and the cell viability was evaluated using a CellTiter Glo (registered trademark) Reagent (Cat. #G7570, manufactured by Promega Corporation) with the intracellular ATP level as an index. The concentration that inhibits cell viability by 50% (IC50 value) was calculated using XLFit software Ver.3 (registered trademark, manufactured by CTC Laboratory Systems Corporation).
The cell viability of each well was determined with the luminescence signal level of the negative control being 0% cell viability and the luminescence signal level of the positive control being 100% cell viability. The average value and standard deviation of the cell viability of each treatment group were calculated to prepare Tables 3 to 6.

[2] = system: pancreatic cancer patient; conditions: cited from earlier work
[3] = orally administered to mice; cited from earlier work
[4] = SK-OV-3, with carboplatin 30 μmol/L
[5] = SK-OV-3, with cisplatin 10 μmol/L
[6] = used in combination with cisplatin (10 μmol/L, Table 4)

pIC50 [1, 6] | SMILES | viability at 0.001 µM [1, 4] | viability at 0.003 µM [1, 4] | viability at 0.01 µM [1, 4] | viability at 0.03 µM [1, 4] | viability at 0.1 µM [1, 4] | viability at 0.3 µM [1, 4] | viability at 1 µM [1, 4] | viability at 3 µM [1, 4] | viability at 10 µM [1, 4] | viability at 0.001 µM [1, 5] | viability at 0.003 µM [1, 5] | viability at 0.01 µM [1, 5] | viability at 0.03 µM [1, 5] | viability at 0.1 µM [1, 5] | viability at 0.3 µM [1, 5] | viability at 1 µM [1, 5] | viability at 3 µM [1, 5] | viability at 10 µM [1, 5] | CI ([1]; combination with Carboplatin) | further results
5.42 | Nc1ccn([C@@H]2O[C@H](CO)[C@@H](O)C2(F)F)c(=O)n1 [Gemcitabine] | 90% | 90% | 88% | 86% | 83% | 82% | 81% | 80% | 76% | 82% | 84% | 84% | 83% | 83% | 83% | 79% | 59% | 30% | 1.0 | IC50 value ([1]; SK-OV-3, used in combination with carboplatin (30 μmol/L, Table 5)): could not be calculated; CI ([1]; combination with Cisplatin): 1.1; median survival time ([2]; combination with cisplatin): 7.5 months; response rate ([2]; combination with cisplatin): 11.5%; median survival time ([2]; combination with oxaliplatin): 5.7 months; response rate ([2]; combination with oxaliplatin): 9%
7.09 | Nc1ccn([C@@H]2S[C@H](CO)[C@@H](O)[C@@H]2F)c(=O)n1 [Compound A, 1-(2-deoxy-2-fluoro-4-thio-β-D-arabinofuranosyl)cytosine] | 90% | 88% | 84% | 82% | 80% | 73% | 41% | 20% | 17% | 83% | 82% | 81% | 76% | 43% | 14% | 11% | 10% | 10% | 0.3 | antitumor activity [3]: potent antitumor activity; pIC50 ([1]; used in combination with carboplatin (30 μmol/L, Table 5)): 6.17; CI ([1]; combination with Cisplatin): 0.2
